The test system of data set [1] is Mel Juso cells. The experiment in a line: long-term treatment, emergence of surviving tumor cells and drug resistance. In kind it is cell-based, human. Particulars: 28 days, IC50 or 2×IC50.
A further data set concerns Htz19 melanoma cells. The experiment in a line: three-dimensional colony formation assay. In kind it is cell-based, human. The note with it: Htz19 (BRAFi primary sensitive); DR 5 μM, PLX 10 μM, alone or combined.
Data set [2] deals with Mel Juso cells. The data set can be described thus: three-dimensional, anchorage-independent colony-forming assay. Particulars: Mel Juso (BRAFi primary resistant); DR 5 μM, PLX 10 μM, alone or combined. Format: cell-based, human. From the text: FIGS. 5A through 5D show time-dependent measurement of colony diameters (exemplary data in top panels) in three-dimensional, anchorage-independent “colony-forming” assays (FIGS. 5A and 5B: Mel Im, FIGS. 5C and 5D: Mel Juso). Exemplary Images (middle) and corresponding quantification of colony diameters (bottom panels, summarized data of n=3 experiments at day 19 after seeding) are also depicted. […] Effects on i) colony formation (FIGS. 5A and 5C, treatment at day 1) and ii) proliferation of pre-formed colonies (FIGS. 5B and 5D, treatment at day 7 and 13) were analyzed. […] Cells were treated for 5 hours with DMSO, 5 μM Deltarasin (DR), 10 μM PLX, or a combination of 10 μM PLX and 5 μM DR. […] (FIG. 5H) Mel Im and Mel Juso were transfected with control si-RNA (si-CTR) or with si-KRAS (si-KR). Two subgroups (blue and red) were additionally treated with 10 μM PLX (Vemurafenib) for 24 hours, with subsequent flow cytometric quantification of tumor cell apoptosis according to FIG. 5G.

A further data set deals with Hep3B. The data set can be described thus: real-time cell proliferation assay. In kind it is cell-based, human. Particulars: DR doses.
For data set [3], the system named is Mel Im cells. The data set can be described thus: real-time cell proliferation (slope of cell index). In kind it is cell-based, human. The note with it: different concentrations of DR vs DMSO. From the text: (§1) FIGS. 4A through 4H depict that small Molecule KRAS Inhibition Reduces Proliferation and Induces Apoptosis in Melanoma. FIGS. 4A and 4B show proliferation (slope of cell index) of Mel Juso (FIG. 4A) and Mel Im (FIG. 4B) cells treated with DMSO and different concentrations of the KRAS small molecule inhibitor Deltarasin (DR). The cell index as dimensionless parameter for cell proliferative ability was used to determine the half maximal inhibitory concentration (IC50, small graphs) of DR. […] FIG. 4D illustrates exemplary images of different melanoma cell lines (Mel Im, Mel Juso and Mel Ei) treated with 5 μM DR or 5 μM DMSO, respectively, for 24 hours. FIGS. 4E and 4F show images of fibroblast cell lines derived from two different donors (F1, F2) and melanocytes (NHEM) treated DR (20 μM, 48 hours) or DMSO (FIG. 4E), and lactate dehydrogenase (LDH) quantification (FIG. 4F) in cell supernatants (optic density, OD) of NHEM after treatment with low dose DMSO, DR (5 μM), and DR (10 μM), respectively.

Data set [4] deals with Mel Juso cells. The data set can be described thus: real-time cell proliferation (slope of cell index). In kind it is cell-based, human. The note with it: different concentrations of DR vs DMSO.
Source text: as §1

The test system of a further data set is melanoma cells. The data set can be described thus: lactate dehydrogenase (LDH) quantification in cell supernatants after low dose DR. Particulars: low dose DR (2 μM), 24 hours. Format: cell-based, human.
Data set [5] relates to murine hepatoma cell line Hepa129. The data set can be described thus: viable cells counted by microscopy. In kind it is cell-based. The note with it: 24 hours. The method, then: (§2) FIGS. 12A through 12C depict Murine Hepatoma Cells (Hepta129) Sensitive for Small Molecule KRAS Inhibition in vitro and in vivo. […] is exemplary images (4-fold) depicting murine Hepatoma Cells (Hepa129) treated for 24 hours with Deltarasin (DR) and/or Sorafenib (SF) using different concentration of inhibitors.

Data set [6] has the same test system. The data set can be described thus: apoptosis by FACS analysis. The note with it: 24 hours. Format: cell-based. The method, then: as §2
A general note: Flow cytometry measures light scatter and fluorescence of single cells or particles in a stream.

A further data set concerns PLC cells. The experiment in a line: Western blot pERK- and pAKT protein levels. In kind it is cell-based, human. Particulars: Deltarasin vs DMSO. A general note: Immunoblotting shows a protein as a band on a membrane.
In a further data set the test system is Hep3B cells. The data set can be described thus: Western blot pERK- and pAKT protein levels. The note with it: Deltarasin vs DMSO. Format: cell-based, human.
For data set [7], the system named is pancreatic adenocarcinoma cells. The note with it: Zimmermann et al., 2013; cited from earlier work.
In data set [8] the test system is melanoma cell lines (Mel Im, Mel Juso and Mel Ei). The experiment in a line: toxicity (images) in melanoma cell lines. The note with it: 5 μM, 24 hours. Format: cell-based, human.
Source text: as §1

For another data set, the system named is HCC cells. The data set can be described thus: anchorage-dependent tumor cell growth. Format: cell-based, human. The note with it: low doses (6 μM).
In data set [9] the test system is normal human epidermal melanocytes (NHEM). The data set can be described thus: toxicity in non-tumor cells (images, LDH). In kind it is cell-based. Particulars: doses up to 20 μM.
Source text: as §1

The test system of data set [10] is Mel Im cells. The data set can be described thus: FACS analysis of apoptosis (Annexin / propidium iodide). Format: cell-based, human.
Source text: as §1
(§3) FIGS. 5A through 5D show time-dependent measurement of colony diameters (exemplary data in top panels) in three-dimensional, anchorage-independent “colony-forming” assays (FIGS. 5A and 5B: Mel Im, FIGS. 5C and 5D: Mel Juso). Exemplary Images (middle) and corresponding quantification of colony diameters (bottom panels, summarized data of n=3 experiments at day 19 after seeding) are also depicted. Treatments were performed in four different groups (10 μM DMSO, 5 μM Deltarasin=DR, M PLX-4032=PLX (vemurafenib), or combination of 10 μM PLX+[…]). Effects on i) colony formation (FIGS. 5A and 5C, treatment at day 1) and ii) proliferation of pre-formed colonies (FIGS. 5B and 5D, treatment at day 7 and 13) were analyzed. […] FIG. 5F show images of PLX-primary resistant Mel Juso cells treated with DMSO, DR (5 μM), high dose PLX (20 μM) and a combination of 5 μM DR+10 μM PLX for 24 hours. […] Cells were treated for 5 hours with DMSO, 5 μM Deltarasin (DR), 10 μM PLX, or a combination of 10 μM PLX and 5 μM DR. According to exemplary images for Annexin and propidium iodide (PI) staining are depicted for Mel Im. (FIG. 5H) Mel Im and Mel Juso were transfected with control si-RNA (si-CTR) or with si-KRAS (si-KR). Two subgroups (blue and red) were additionally treated with 10 μM PLX (Vemurafenib) for 24 hours, with subsequent flow cytometric quantification of tumor cell apoptosis according to FIG. 5G. Exemplary images for Annexin and propidium iodide (PI) staining are depicted for Mel Im.

The subject of data set [11] is Mel Juso cells. The description is as above. In kind it is cell-based, human.
Source text: as §1, §3

The subject of the next data set is PLC. Particulars: DR doses.
Setting [12] is: 5 hours, 5 μM DR, 10 μM PLX or combination.

Each structure is given as a SMILES string.

For the molecule `c1ccc(Cn2c(-c3ccc(OC[C@H](C4CCNCC4)n4c(-c5ccccc5)nc5ccccc54)cc3)nc3ccccc32)cc1` [Deltarasin, (S)-1-Benzyl-2-(4-(2-(2-phenyl-1H-benzo[d]imidazol-1-yl)-2-(piperidin-4-yl)ethoxy)phenyl)-1H-benzo[d]imidazole], the “surviving tumor cells after long-term treatment” value with Mel Juso cells [1] is “no surviving tumor cells were detected”. The “three-dimensional colony formation and proliferation of pre-formed colonies” value with Htz19 melanoma cells is given as “similarly effective as PLX”. Also, the “three-dimensional colony formation and colony proliferation” value with Mel Juso cells [2] is listed as “markedly inhibited”. Besides, the inhibition of proliferation result with Hep3B and in the data set with PLC was “strong dose-dependent inhibition of proliferation” in each case. For the same molecule, the “inhibition of proliferation (slope of cell index)” value with Mel Im cells [3] and in the data set on Mel Juso cells [4] was “dose-dependent inhibition of proliferation” throughout. In addition, the “lactate dehydrogenase (LDH) amounts in cell supernatants” value in the data set on melanoma cells is recorded as “sufficient to increase lactate dehydrogenase (LDH) amounts”. Moreover, in data set [5], the “tumor cell proliferation (viable cells)” value is recorded as “marked effects”. For the same molecule, the apoptosis result in [6] is “marked effects”. Besides, the “pERK- and pAKT protein levels” value with PLC cells and in the data set with Hep3B cells was “significant reduction” each time. Further, the “proliferation of pancreatic adenocarcinoma cells” value in data set [7] is reported as “reduce proliferation”. The “toxicity in different melanoma cell lines” value in data set [8] is listed as “marked toxicity”. For the same molecule, the “anchorage-dependent tumor cell growth” value in the data set with HCC cells is “suppressed”. In addition, the “toxic effects in normal human epidermal melanocytes (NHEM)” value in data set [9] is “no toxic effects”. The “induction of apoptosis (FACS)” value in the data set on Mel Im cells [10] (5 μM for 8, 16 and 24 hours) is reported as “marked time-dependent induction of apoptosis”; in the data set with Mel Juso cells [11] (5 μM for 8, 16 and 24 hours), “marked time-dependent induction of apoptosis”. For the same molecule, the “apoptosis (FACS), short treatment” value was “only slightly induced apoptosis” in the data set with Mel Im cells [10] (setting [12]) and “did not induce apoptosis” with Mel Juso cells [11] (setting [12]).

(Values after patent US20200147058A1, “KRAS INHIBITOR FOR USE IN TREATING CANCER” (Friedrich-Alexander-Universitat Erlangen-Numberg, priority 2016, published 2020).)
